Test results taken from patent US20030045524A1, “Alpha-2-adrenergic agonist/fatty acid compositions” (priority 2001, published 2003).
Like-named read-outs stand apart in the source and are kept apart here.

Legend:
[1] = test system: Rabbit Intraocular Pressure; details: 0.2% complex; for INTRAOCULAR PRESSURE: mean, n=8
Description: In this study, the animals were placed into three groups consisting of a mix of age, size and sex.
One group of animals (both sexes) was used per screening study. The test compound (20 L of 0.2% bromonidine-linoleic acid ion pair complex) was administered to the surface of the cornea using an automatic pipette or an appropriate device.
The following general procedure for administering the test compound employed in this study is presented below:
1. Make sure that the 0.25% proparacaine Opthetic5 mixture (topical local anesthetic), test compounds, and commercially available treats are available.
2. Turn on the Digilab Modular One J Pneuma Tonometer (pneumatonometer) [BioRad, Cambridge, Mass.]; it needs approximately 15 minutes to warm up. Turn on gas supply or air pump.
3. Hold probe vertically with the point tip down and press “calibration check” for “zero”.
4. Wipe the pneumatonometer probe with an alcohol swab, and inspect the tip membrane for holes.
5. Set the external calibration device (air or water manometer) to 25 mm Hg, place the pneumatonometer probe in the calibration device to ensure that it corresponded to 25 2 mm Hg.
6. Obtain a rabbit. Make sure the recording data sheets are at hand.
7. Gently restrain the rabbit via a commercial restrainer or a cotton towel. Measure the pupil diameter with the specialized ruler for each eye and record the values on the sheets provided. If the eyes are too dark to obtain a value by this method, a specialized penlight may be used. Obtain a pupil diameter measurement by shining the penlight on the cornea for one second.
8. Slide the upper eyelid up with the thumb and visually assess and score the degree of ocular surface redness. Record the value for each eye on the sheet provided.
9. Put one drop of 0.25% proparacaine Opthetic5 (50:50 mix of 0.5% proparacaine Opthetic5+Cellufresh5) on the surface of each eye. Wait one or more minutes for ophthetic to take effect.
10. Place the pnematonometer tip on one eye at the site where the curvature of the cornea is greatest. Let the probe shank travel to the black line, not the red line. Persist until a stable reading with the standard deviation below 1.0 is obtained. Repeat the procedure for the contralateral eye. Record the data. (Note: If the animal is upset by the restraint, the reading will be artificially high and cannot be used. Use gentle restraint).
11. At the end of the 0, 6, 24, 30, 48, 54, 72, 78 and 96 hour measurements, use an automatic pipette to apply 20 L of the test compound to the surface of the cornea of one eye. After the 102 hour measurements, the eyes will be washed out with Refresh5 and Prefrin5.
12. Give the animal a treat and return the animal to its cage.
13. Repeat steps 7 to 11 on the remaining animals in the group.
The following general procedure for measuring the effects of the test compound employed in this study is as follows: a reading is conducted at 0, 2, 4, 6, 24, 26, 28, 30, 48, 50, 52, 54, 72, 74, 76, 78, 96, 98, 100, and 102 hours. The pneumatonometer is calibrated before use with a manometer and the probe tip is wiped with an alcohol swab. One drop of 0.25% proparacaine Opthetic5, a corneal anesthetic, is placed on the cornea. Allow sufficient time (approximately 1 minute) for it to anesthetize the cornea before placing the probe on the eye. The eye is gently opened by the person doing the tonometer reading. The probe is placed on the cornea at the point of greatest curvature and a stable reading is obtained. The probe is held parallel to the floor and perpendicular to the line of the rabbit's sight. The reading is repeated until a reasonable reading can be obtained. The piston should be between the red and black lines or at the black line on the probe.
Values are mean S.E.M. n=8.

[2] = test system: Intra Ocular Pressure; details: ion pair formulation of 0.131% bromonidine and 0.126% linoleic acid
From the text: The complex is an ion pair formulation of 0.131% bromonidine and 0.126% linoleic acid.

[3] = test system: monkeys; details: average of 6 monkeys, 0.2%, scale S=0 to 4
Description: The relative sedative effects of bromonidine-linoleic acid (compound 65) were compared to saline (compound 62) and brimonidine tartrate (compound 60). This study involved cross overs and a one-week wash out in between the administration of the various compounds.
As done in a previous experiment, the following method was followed:
1. 6 trained monkeys were placed in chairs and allowed to acclimate for approximately 30 minutes.
2. Individual monkeys were brought into the “testing room” where they were allowed to adjust to the new environment for approximately 2 minutes. […] Sedation scores were recorded on an observation sheet.
3. The monkey was returned to the group of animals assigned to this study.
4. 2 baseline readings were done at T−0.5 and 0 hour. After the 0 hour reading one drop of the test compound was administered to the right eye.
5. Steps 2 & 3 were repeated at T=0.5, 1, 2, 3 and 4 hour.
6. Animals were monitored until they recover from effects of the drug.
5. Scoring of Sedation was based on the following scale:
S=0 Monkey is quiet, but slightly active.
S=1 Monkey is quiet, easy to handle for reading
S=2 Monkey is quiet, relaxed but very low in activity
S=3 Monkey is blinking eyes and yawning
8. The test compounds were coded: 62-Saline, […].
9. Test Compound Administration:
The scoring was conducted for each animal for the different test compounds. The average results are shown on table 1.

With Brc1c(NC2=NCCN2)ccc2nccnc12.CCCCC/C=C\C/C=C\CCCCCCCC(=O)O the “time for which intraocular pressure in a rabbit's eye is reduced” value ([1]; after administration) was “at least 6 hours”, the “duration of the effect of the complex on intraocular pressure” value ([1]; after administration at time 6 hr) was “less than 18 hrs” and the “INTRAOCULAR PRESSURE” value ([1]; time 0 hr (initial, dosed after reading)) was 25.8 mmHg. For the same compound, the “INTRAOCULAR PRESSURE” value ([1]; time 2 hr) was 17.1 mmHg, the “INTRAOCULAR PRESSURE” value ([1]; time 4 hr) was 21.1 mmHg and the “INTRAOCULAR PRESSURE” value ([1]; time 6 hr (dosed after reading)) was 23.9 mmHg. The “INTRAOCULAR PRESSURE” value ([1]; time 24 hr (dosed after reading)) was 25.6 mmHg, the “INTRAOCULAR PRESSURE” value ([1]; time 26 hr) was 19.9 mmHg and the “INTRAOCULAR PRESSURE” value ([1]; time 28 hr) was 22.9 mmHg. The “INTRAOCULAR PRESSURE” value ([1]; time 30 hr (dosed after reading)) was 23.0 mmHg, the “INTRAOCULAR PRESSURE” value ([1]; time 48 hr (dosed after reading)) was 26.5 mmHg and the “INTRAOCULAR PRESSURE” value ([1]; time 50 hr) was 20.4 mmHg. The “INTRAOCULAR PRESSURE” value ([1]; time 52 hr) was 23.4 mmHg, the “INTRAOCULAR PRESSURE” value ([1]; time 54 hr (dosed after reading)) was 24.1 mmHg and the “INTRAOCULAR PRESSURE” value ([1]; time 72 hr (dosed after reading)) was 26.8 mmHg. The “INTRAOCULAR PRESSURE” value ([1]; time 74 hr) was 21.1 mmHg, the “INTRAOCULAR PRESSURE” value ([1]; time 76 hr) was 23.9 mmHg and the “INTRAOCULAR PRESSURE” value ([1]; time 78 hr (dosed after reading)) was 25.2 mmHg. For the same compound, the “INTRAOCULAR PRESSURE” value ([1]; time 96 hr (dosed after reading)) was 27.9 mmHg, the “INTRAOCULAR PRESSURE” value ([1]; time 98 hr) was 20.1 mmHg and the “INTRAOCULAR PRESSURE” value ([1]; time 100 hr) was 23.9 mmHg. The “INTRAOCULAR PRESSURE” value ([1]; time 102 hr) was 25.3 mmHg, the “percent change of Intra Ocular Pressure” value ([2]; 1 hr after administration at time 0) was −10.4% and the “percent change of Intra Ocular Pressure” value ([2]; 2 hr after administration at time 0) was −16.0%. For the same compound, the “percent change of Intra Ocular Pressure” value ([2]; 4 hr after administration at time 0) was −09.5% and the “percent change of Intra Ocular Pressure” value ([2]; 6 hr after administration at time 0) was −09.4%.

“brimonidine tartrate [reference compound]” was tested, and the “SEDATION SCORE” value ([3]; time 0 hr (baseline, before dosing)) was 0.8, the “SEDATION SCORE” value ([3]; time 0.5 hr after one drop to right eye) was 0.8 and the “SEDATION SCORE” value ([3]; time 1 hr after one drop to right eye) was 1.7. The “SEDATION SCORE” value ([3]; time 2 hr after one drop to right eye) was 2.6, the “SEDATION SCORE” value ([3]; time 3 hr after one drop to right eye) was 2.5 and the “SEDATION SCORE” value ([3]; time 4 hr after one drop to right eye) was 2.7. For the same compound, the “SEDATION SCORE” value ([3]; time −0.5 hr (baseline, before dosing)) was 0.7.
